The values below are quoted from earlier work in patent US12667644B2, “Iodine-infused ultra high molecular weight polyethylene” (Biomet Manufacturing, LLC, priority 2019, dated 2026).

The subject of the data set is microbes.

On to povidone-iodine, for which the “minimum concentration required to achieve antimicrobial activity” value was “about 2 ppm”.
